Test results taken from the NIST ThermoML archive (doi:10.1021/je050416y).

Test: xn = mol fraction of the nth substance listed
Details: 101 kPa, Liquid; for mass density: Vibrating tube method

CC(C)CCO [3-methylbutan-1-ol] + CCO
Details	kinematic viscosity, 293.15 K [m2/s]	kinematic viscosity, 298.15 K [m2/s]	kinematic viscosity, 303.15 K [m2/s]	mass density, 293.15 K [kg/m3]	mass density, 298.15 K [kg/m3]	mass density, 303.15 K [kg/m3]	mass density, 308.15 K [kg/m3]
x1 = 0.0268	–	–	–	790.5	786.2	781.8	777.5
x1 = 0.0549	–	–	–	791.3	787	782.7	778.4
x1 = 0.0845	–	–	–	792.1	787.9	783.7	779.4
x1 = 0.0915	1.55e-06	1.42e-06	1.27e-06	–	–	–	–
x1 = 0.1156	–	–	–	792.9	788.8	784.6	780.4
x1 = 0.1484	–	–	–	793.8	789.7	785.5	781.4
x1 = 0.1753	1.61e-06	1.48e-06	1.32e-06	–	–	–	–
x1 = 0.183	–	–	–	794.7	790.6	786.5	782.4
x1 = 0.2524	1.68e-06	1.54e-06	1.38e-06	–	–	–	–
x1 = 0.2584	–	–	–	796.6	792.5	788.5	784.4
x1 = 0.3235	1.75e-06	1.61e-06	1.45e-06	–	–	–	–
x1 = 0.3433	–	–	–	798.5	794.5	790.5	786.5
x1 = 0.3894	1.83e-06	1.69e-06	1.52e-06	–	–	–	–
x1 = 0.4395	–	–	–	800.4	796.5	792.5	788.6
x1 = 0.4505	1.93e-06	1.78e-06	1.61e-06	–	–	–	–
x1 = 0.5495	–	–	–	802.4	798.5	794.6	790.7
x1 = 0.5605	2.19e-06	2.01e-06	1.81e-06	–	–	–	–
x1 = 0.6567	2.51e-06	2.28e-06	2.05e-06	–	–	–	–
x1 = 0.6765	–	–	–	804.3	800.5	796.7	792.9
x1 = 0.7416	2.89e-06	2.6e-06	2.33e-06	–	–	–	–
x1 = 0.817	3.31e-06	2.96e-06	2.64e-06	–	–	–	–
x1 = 0.8247	–	–	–	806.3	802.6	798.7	795
x1 = 0.8844	3.8e-06	3.37e-06	2.99e-06	–	–	–	–
x1 = 0.9451	4.35e-06	3.84e-06	3.38e-06	–	–	–	–
x1 = 1	5e-06	4.35e-06	3.81e-06	808.3	804.6	800.8	797.1
